Test results: patent publication US20220009920A1 (GB005, Inc., priority 2020, published 2022)

Tests used:
Assay in all cases: Large panel kinase profiling
Type in all cases: biochemical
Settings in all cases: 1 μM test article, 1 mM ATP
TBK1 = biological target: T1, TBK1 (Homo sapiens, UniProt Q9UHD2)
T1 construct: AssayQuant Technologies, Inc. (contract laboratory that ran the panel)
T1 sequence (Q9UHD2 1-729): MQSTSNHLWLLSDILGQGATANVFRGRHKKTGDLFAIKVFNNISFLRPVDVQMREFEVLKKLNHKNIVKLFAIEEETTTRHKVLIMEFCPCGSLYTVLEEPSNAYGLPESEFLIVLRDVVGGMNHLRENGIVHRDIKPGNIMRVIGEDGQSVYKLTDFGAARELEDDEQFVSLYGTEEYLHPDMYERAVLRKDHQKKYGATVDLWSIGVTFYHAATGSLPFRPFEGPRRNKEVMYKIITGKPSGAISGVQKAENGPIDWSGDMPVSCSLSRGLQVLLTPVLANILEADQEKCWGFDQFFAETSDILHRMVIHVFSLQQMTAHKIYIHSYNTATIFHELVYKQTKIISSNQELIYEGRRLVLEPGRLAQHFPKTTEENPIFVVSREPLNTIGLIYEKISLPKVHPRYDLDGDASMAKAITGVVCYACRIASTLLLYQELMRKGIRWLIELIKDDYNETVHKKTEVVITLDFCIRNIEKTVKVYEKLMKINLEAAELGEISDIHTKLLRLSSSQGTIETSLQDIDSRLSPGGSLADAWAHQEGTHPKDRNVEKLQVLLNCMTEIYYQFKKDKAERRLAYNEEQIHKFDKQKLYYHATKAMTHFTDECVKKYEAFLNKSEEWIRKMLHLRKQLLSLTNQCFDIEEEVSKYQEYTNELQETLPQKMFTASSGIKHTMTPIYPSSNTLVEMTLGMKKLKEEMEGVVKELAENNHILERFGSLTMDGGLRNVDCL
How it was run: (§1)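 Fluorescence intensity (Ex 360 nm, Em 485 nm) was monitored continuously, once per minute, in PhosphoSens CSox-Sensor kinase reactions held at 30° C. Compound was present at 1 μM and ATP at 1 mM.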

EPHA6 = biological target: T2, EPHA6 (Homo sapiens, UniProt Q9UF33)
T2 sequence (Q9UF33 23-1036): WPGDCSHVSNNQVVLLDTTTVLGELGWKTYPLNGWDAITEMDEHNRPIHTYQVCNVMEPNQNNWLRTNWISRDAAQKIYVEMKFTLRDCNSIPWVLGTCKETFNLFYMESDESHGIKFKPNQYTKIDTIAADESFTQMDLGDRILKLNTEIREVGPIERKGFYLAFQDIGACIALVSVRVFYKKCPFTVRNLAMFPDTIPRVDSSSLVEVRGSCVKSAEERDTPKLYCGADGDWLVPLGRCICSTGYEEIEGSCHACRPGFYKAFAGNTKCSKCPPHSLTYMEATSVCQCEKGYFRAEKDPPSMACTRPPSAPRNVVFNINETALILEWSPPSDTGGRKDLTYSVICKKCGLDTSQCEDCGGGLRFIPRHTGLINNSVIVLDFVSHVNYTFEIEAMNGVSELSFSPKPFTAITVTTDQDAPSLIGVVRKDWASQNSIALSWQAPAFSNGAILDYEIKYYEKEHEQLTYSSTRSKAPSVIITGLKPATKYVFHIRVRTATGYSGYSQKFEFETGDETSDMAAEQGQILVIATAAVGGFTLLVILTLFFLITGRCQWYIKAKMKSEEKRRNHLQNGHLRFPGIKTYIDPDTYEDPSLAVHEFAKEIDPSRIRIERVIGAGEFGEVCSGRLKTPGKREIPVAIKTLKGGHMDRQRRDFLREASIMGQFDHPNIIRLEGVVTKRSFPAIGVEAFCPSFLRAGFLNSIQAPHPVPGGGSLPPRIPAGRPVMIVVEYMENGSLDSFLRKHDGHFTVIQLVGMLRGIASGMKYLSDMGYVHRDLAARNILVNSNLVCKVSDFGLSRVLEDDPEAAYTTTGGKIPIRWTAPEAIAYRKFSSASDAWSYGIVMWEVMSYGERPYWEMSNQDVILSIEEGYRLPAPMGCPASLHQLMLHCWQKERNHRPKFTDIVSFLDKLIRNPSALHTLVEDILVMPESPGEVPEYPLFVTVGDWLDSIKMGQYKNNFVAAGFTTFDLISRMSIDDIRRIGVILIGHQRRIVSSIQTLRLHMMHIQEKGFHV
How it was run: as §1

STK4/MST1 = biological target: T3, STK4/MST1 (Homo sapiens, UniProt Q13043)
T3 construct: AssayQuant Technologies, Inc. (contract assay)
T3 sequence (Q13043 1-487): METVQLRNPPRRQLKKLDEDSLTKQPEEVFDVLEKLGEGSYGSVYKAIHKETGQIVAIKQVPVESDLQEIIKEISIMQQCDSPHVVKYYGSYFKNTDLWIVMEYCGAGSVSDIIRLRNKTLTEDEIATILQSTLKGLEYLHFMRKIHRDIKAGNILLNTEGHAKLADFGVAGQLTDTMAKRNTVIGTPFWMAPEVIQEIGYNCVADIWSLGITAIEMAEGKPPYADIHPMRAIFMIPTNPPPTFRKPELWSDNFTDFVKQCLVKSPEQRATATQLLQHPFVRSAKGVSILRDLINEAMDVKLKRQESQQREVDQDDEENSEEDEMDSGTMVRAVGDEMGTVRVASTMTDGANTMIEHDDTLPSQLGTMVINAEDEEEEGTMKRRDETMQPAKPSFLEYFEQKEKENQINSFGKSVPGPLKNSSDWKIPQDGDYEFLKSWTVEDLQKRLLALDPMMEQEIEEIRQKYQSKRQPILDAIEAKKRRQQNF
How it was run: as §1

CHEK2/CHK2 = biological target: T4, CHEK2/CHK2 (Homo sapiens, UniProt O96017)
T4 construct: AssayQuant Technologies, Inc. (ran the panel)
How it was run: as §1

MAP3K8 = biological target: T5, MAP3K8 (Homo sapiens, UniProt P41279)
T5 construct: AssayQuant Technologies, Inc. (service provider)
How it was run: as §1

CLK4 = biological target: T6, CLK4 (Homo sapiens, UniProt Q9HAZ1)
T6 construct: AssayQuant Technologies, Inc. (service laboratory)
How it was run: as §1

CDK2/E1 = biological target: T7, CDK2/E1 (Homo sapiens, UniProt P24941)
T7 construct: AssayQuant Technologies, Inc. (ran the panel)
How it was run: as §1

T4 sequence (O96017 whole entry): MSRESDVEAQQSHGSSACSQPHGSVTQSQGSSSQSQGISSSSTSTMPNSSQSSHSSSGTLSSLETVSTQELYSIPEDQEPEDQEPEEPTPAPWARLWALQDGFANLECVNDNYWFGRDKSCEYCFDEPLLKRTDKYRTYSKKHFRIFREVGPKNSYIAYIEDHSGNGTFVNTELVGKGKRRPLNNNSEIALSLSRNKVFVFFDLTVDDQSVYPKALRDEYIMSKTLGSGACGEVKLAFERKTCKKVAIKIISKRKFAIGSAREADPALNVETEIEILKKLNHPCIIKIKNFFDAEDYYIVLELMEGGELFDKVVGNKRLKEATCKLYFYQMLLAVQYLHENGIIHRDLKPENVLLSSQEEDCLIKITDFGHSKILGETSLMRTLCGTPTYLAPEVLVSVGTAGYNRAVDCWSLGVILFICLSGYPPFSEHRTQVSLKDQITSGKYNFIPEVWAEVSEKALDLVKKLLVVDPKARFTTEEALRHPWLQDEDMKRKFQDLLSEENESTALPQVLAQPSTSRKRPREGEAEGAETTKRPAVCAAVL
T6 sequence (Q9HAZ1 whole entry, species assumed): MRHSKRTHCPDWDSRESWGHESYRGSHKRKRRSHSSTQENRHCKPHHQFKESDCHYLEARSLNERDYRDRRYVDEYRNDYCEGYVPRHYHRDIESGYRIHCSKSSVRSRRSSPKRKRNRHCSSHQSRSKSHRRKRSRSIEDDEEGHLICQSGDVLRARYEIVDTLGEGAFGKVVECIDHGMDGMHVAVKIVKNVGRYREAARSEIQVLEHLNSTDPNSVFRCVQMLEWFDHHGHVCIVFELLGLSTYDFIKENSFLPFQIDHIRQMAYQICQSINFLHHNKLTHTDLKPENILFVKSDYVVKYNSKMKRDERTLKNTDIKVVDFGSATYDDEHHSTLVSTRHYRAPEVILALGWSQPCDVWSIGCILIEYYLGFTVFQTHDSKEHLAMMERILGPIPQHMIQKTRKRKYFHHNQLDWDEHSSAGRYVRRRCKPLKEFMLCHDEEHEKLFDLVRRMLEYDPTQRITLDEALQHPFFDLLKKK
T5 sequence (P41279 whole entry, species assumed): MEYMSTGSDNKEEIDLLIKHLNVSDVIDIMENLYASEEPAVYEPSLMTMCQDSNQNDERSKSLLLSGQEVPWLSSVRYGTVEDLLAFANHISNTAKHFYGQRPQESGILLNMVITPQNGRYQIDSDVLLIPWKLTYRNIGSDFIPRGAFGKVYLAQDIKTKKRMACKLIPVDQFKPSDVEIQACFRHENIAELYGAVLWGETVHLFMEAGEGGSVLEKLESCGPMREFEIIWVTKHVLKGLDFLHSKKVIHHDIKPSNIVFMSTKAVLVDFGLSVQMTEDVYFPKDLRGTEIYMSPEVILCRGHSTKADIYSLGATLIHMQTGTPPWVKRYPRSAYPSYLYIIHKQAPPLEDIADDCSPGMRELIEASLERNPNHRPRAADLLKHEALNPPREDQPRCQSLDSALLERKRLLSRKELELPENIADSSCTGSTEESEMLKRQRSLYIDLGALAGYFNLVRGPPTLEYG

Work on `C=CC(=O)N1CCCC(c2c(F)cc(C(N)=O)c3[nH]c4c(c23)CCCCC4)C1` (single isomer, unassigned) [Compound 5-6] yielded an inhibition at 1 µM (TBK1) of 10.9%, an inhibition at 1 µM (EPHA6) of 6.1% and an inhibition at 1 µM (STK4/MST1) of 0.9%. It also gave an inhibition at 1 µM (CHEK2/CHK2) of 0.6%, an inhibition at 1 µM (MAP3K8) of 7.4% and an inhibition at 1 µM (CLK4) of 12.3%. For the same molecule, the inhibition at 1 µM (CDK2/E1) was -7.3%.

With `C=CC(=O)N1CCC[C@@H](c2c(F)cc(C(N)=O)c3[nH]c4c(c23)CC2(CC4)CC2)C1` [Compound 6-2, (S)-5-(1-acryloylpiperidin-3-yl)-6-fluoro-1,2,4,9-tetrahydrospiro[carbazole-3,1′-cyclopropane]-8-carboxamide] the inhibition at 1 µM (TBK1) was -34.6%, the inhibition at 1 µM (EPHA6) was -14.6% and the inhibition at 1 µM (STK4/MST1) was -9.5%. It also gave an inhibition at 1 µM (CHEK2/CHK2) of -14.1%, an inhibition at 1 µM (MAP3K8) of 10.1% and an inhibition at 1 µM (CLK4) of 6.5%. For the same molecule, the inhibition at 1 µM (CDK2/E1) was -12.9%.

With `C=CC(=O)N1CCC[C@@H](c2c(F)cc(C(N)=O)c3[nH]c4c(c23)CCC4)C1` [Compound 10-2, (S)-8-(1-acryloylpiperidin-3-yl)-7-fluoro-1,2,3,4-tetrahydrocyclo-penta[b]indole-5-carboxamide] the inhibition at 1 µM (TBK1) was -31.3%, the inhibition at 1 µM (EPHA6) was -17.7% and the inhibition at 1 µM (STK4/MST1) was 0.4%. The inhibition at 1 µM (CHEK2/CHK2) was -9.2%, the inhibition at 1 µM (MAP3K8) was 4.5% and the inhibition at 1 µM (CLK4) was 2.7%. The inhibition at 1 µM (CDK2/E1) was 7%.
